Data on five compounds can be found in patent US20060046972A1, “Cytotoxic nucleoside analog compound 003 for treating cancer” (Parker Hughes Institute, priority 2004, published 2006).

“Also recorded” adds a separate entry of the source. Like-named read-outs stand apart in the source and are kept apart here.

The test system of data set [1] is esterase-mediated metabolism of Compound 003 in BT20 cells. Description: Inhibition of ala-AZT-MP formation by esterase inhibitors, BT20. In kind it is cell-based, human. As for the experimental part: (§1) BT20 breast cancer cells were cultured in a medium composed of MEM, 10% FBS, 0:1 mM of nonessential amino acids and Earles salts, and 1% penicillin/streptornyclin Nalm6 cells were maintained in a medium composed of RPMI, 10% fetal bovine serum (FBS) and 1% penicillin/streptomycin. BT20 cells were seeded in 6-cm petri-dishes at 4 million cells per plate. Nalm6 cells at a density of 10^6 cells per ml were also utilized in drug metabolism study. Either one plate of adherent cells or 10 million nonadherent cells were utilized at each experiment. Cells were incubated with DMSO or 100 μM of esterase inhibitor, paraoxon, bis(p-nitrophenyl)phosphate (BNPP), physostigmine, or phenylmethylsulfonyl fluoride (PMSF) (Sigma) for 3.0 minutes, followed by 1 hour incubation of 100 μM Compound 003. After incubation, cells were washed two times with ice-cold PBS, and extracted by addition of 60% methanol. Cell lysates were kept at −20° C. overnight, after which lysates were centrifuged at 15,000×g for 10 minutes to remove the cell debris. One hundred microliters of these lysates were injected directly to HPLC. The amount of metabolite product of the esterase reaction, ala-AZT-MP, was measured to examine the effect of inhibitors on esterase-mediated metabolism of Compound 003.

For data set [2] the following is noted: Wang et al. (1996); cited from earlier work.
Data set [3] is described as follows: Pharmacokinetics in CD-1 mice after intravenous or oral Compound 003. Type of data set: in vivo. To be noted: female, CD-1, mouse. The method, then:
Each plasma sample (200 μL) was mixed 1:4 with acetone (800 μL) and vortexed for at least 30 seconds. Following centrifugation, the supernatant was transferred into a clean tube and dried under nitrogen. A 50 μL solution of 50% methanol in 200 mM HCl was used to reconstitute the extraction residue, and 35 μL was subjected to analytical HPLC. The analytical column used was a 250×4 mm Lichrospher 100, RP-18 (5 μm) and the guard column was a 4×4 mm Lichrospher 100, RP-18 (5 μm). The mobile phase was degassed automatically by the electronic degasser system. The column was equilibrated and eluted under gradient conditions utilizing a flow rate of 1.0 ml/min at ambient temperature. The linear gradient mobile phase was: 0 minute, 100% 10 mM ammonium phosphate buffer (pH 3.7); 20 minutes, 20% acetonitrile, 80% ammonium phosphate buffer (pH 3.7); 20.1-50 minutes, 28% acetonitrile, 72% water (0.1% HAC). The wavelength of detection was set at 270 nm. Peak width, response time and slit werep, set at >0.03 minutes, 0.5 s and 8 nm, respectively.
Female CD-1 mice (6-8 weeks old) (Charles River, Wilmington, Mass.) were housed in a USDA-accredited animal care facility under standard environmental conditions (12-h light/12-h dark photoperiod, 22±1° C., 60±10% relative humidity). All rodents were housed in microisolator cages (Lab Products, Inc., N.J.) containing autoclaved bedding. Mice were allowed free access to autoclaved pellet food and tap water throughout the study. All animal studies are approved by the Parker Hughes Institute Animal Care and Use Committee, and all animal care procedures conformed to the principles outlined in the Guide for the Care and Use of Laboratory Animals (National Research Council;. National Academy Press, Washington D.C. 1996).
Compound 003 (200 mg/kg) dissolved in DMSO was administered intravenously via tail vein to non-fasted mice or orally via gavage to 12-h fasted mice. Four to six mice per time-point were used for pharmacokinetic studies. Blood samples (˜500 μL) were obtained from the ocular venous plexus by retro-orbital venipuncture at 0, 5, 10, 15, 30, 45 minutes, and 1 h, 1.5 h, 2 h, 4 h, 6 h and 8 h after oral administration. All collected blood-samples were heparinized and centrifuged at 7000×g for 5 minutes to separate the plasma fraction from the whole blood. The plasma samples were then processed immediately using the extraction procedure described above.
Pharmacokinetic modeling and parameter calculations were carried out using the WinNonlin Professional Version 3.0 (Pharsight, Inc., Mountain, Calif.) pharmacokinetics software (Chen, C. L., et al., (1999) Pharm Res. 16:117; Chen, C. L., et al., (1999) Pharm Res. 16:1003; Uckun, F. M., et al., (1999) Clin Cancer Res. 5:2954). An appropriate model was chosen on the basis of the lowest sum of weighted squared residuals, the lowest Schwartz Criterion (SC), the lowest Akaike's Information Criterion (AIC) value, the lowest standard errors of the fitted parameters, and the dispersion of the residuals. The elimination half-life was estimated by linear regression analysis of the terminal phase of the plasma concentration-time profile. The systemic clearance (CL) was determined by dividing the dose by the AUC.

The test system of the next data set is BT20 breast cancer cells. Description: Confocal laser scanning microscopy of microtubules / mitotic spindle, BT20. Type of data set: cell-based, human. To be noted: 185 μM for 24 hours (AZT: similar concentrations). As for the experimental part: Immunofluorenscence was used to examine the spindle features of human cancer cell lines treated with Compound 003 or 0.5% DMSO. […] The coverslips were incubated with antibodies raised against α-tubulin, γ-tubulin (Sigma Chemical Co., St Louis, Mo.) (40 min 37° C.), washed in PBS-Tx-100, and incubated with an appropriate secondary antibody conjugated to FITC (Jackson ImmunoResearch, Westgrove, Pa.). Cellular DNA was labeled with 5 μM TOTO3 (Molecular Probes, Eugene, Oreg.) for 20 minutes. Coverslips were immediately inverted onto slides in Vectashield (Vector Labs, Burlingame, Calif.) to prevent photobleaching, sealed with nail varnish and stored at −20° C. The slides were examined using a Bio-Rad MRC-1024 Laser Scanning Confocal Microscope equipped with a Kr/Ar laser (BioRad, Hercules, Calif.) mounted on a Nikon Eclipse E800 upright microscope with high numerical aperture objectives (Nikon, Melville, N.Y.). Digital data were processed using Lasersharp (BioRad) and Adobe Photoshop software (Adobe Systems, Mountain View, Calif.). ( See, for example, Navara, et al., 2001, Anticancer Drugs. 12:369; Malaviya, et al., 2002, Leuk Lymphoma. 43, 1329; and Ghosh, 1998, Clin Cancer Res. 4, 2657).

Data set [4] has as its system esterase-mediated metabolism of Compound 003 in Nalm6 cells. Description: Inhibition of ala-AZT-MP formation by esterase inhibitors, Nalm6. Conditions: 100 μM inhibitor, then 100 μM Compound 003 1 hour. In kind it is cell-based, human. As for the experimental part:
as §1

In the next data set the test system is BT20 cells. Put plainly: Metabolite efflux from cells to the medium. Type of data set: in vitro ADME, human. To be noted: 100 μM Compound 003 1 hr, efflux after 6 hr. The text has this:
(§2) Intracellular metabolism of Compound 003 was studied in CEM T-lineage lymphoma cell line, BT20 breast cancer cell line, T98 glioblastoma cell line, and Nalm-6 B-lineage leukemia cell line. CEM and Nalm6 cells were maintained in RPMI supplemented with 10% fetal bovine serum, and 1% penicillin/streptomycin. BT20 and T98 cells w.ere cultured in a medium composed of MEM, 10% fetal bovine serum, 0.1-mM of nonessential amino acids and Earles salts, and 1% penicillin/streptomycin. CEM and Nalm6 cells at a density of 10^6 cells per ml were utilized in the drug metabolism study. BT20 and T98 cells were seeded in 6-cm petri-dishes at 4 million cells and 2 million cells per plate, respectively, the day before the experiment. Either one plate of adherent cells or 10 million non-adherent cells was utilized at each time point. Cells were incubated with various concentrations of the compounds up to 24 hrs at 37° C. After incubation, cells were washed 2 times with ice-cold PBS, and extracted by addition of 0.5-1 ml of 60% methanol. […] With efflux experiments, cells 1×10^6/mL (the same density as in the uptake study) were incubated with 100 μM Compound 003 for 1 hr, washed 2 times with ice-cold PBS, and resuspended with culture medium without drug, and the metabolite efflux from cells to the medium was measured after 6 hr of incubation.

Data set [5] relates to CEM T-lineage lymphoma cell line. Put plainly: Intracellular metabolism of Compound 003 to ala-AZT-MP, CEM. Type of data set: in vitro ADME, human.
Source text: as §2, with “incubation. […]” for “incubation.”

Data set [6] deals with Nalm-6 B-lineage leukemia cell line. Put plainly: Intracellular metabolism of Compound 003 to ala-AZT-MP, Nalm6. Type of data set: in vitro ADME, human.
Source text: as §2, with “incubation. […]” for “incubation.”

The test system of data set [7] is BT20 breast cancer cell line. Put plainly: Intracellular metabolism of Compound 003 to ala-AZT-MP, BT20. Type of data set: in vitro ADME, human.
Source text: as §2, with “methanol. Cell lysates were kept at −20° C. overnight, after which lysates were centrifuged at 15000×g for 10 minutes to remove the cell debris. One hundred microliters of these lysates were injected directly to HPLC. For half-life study, cells at the same density as in drug metabolism study were treated with 100 μM Compound 003 for 2 hrs, after which cells were washed 2 times with ice-cold PBS, and resuspended in warm media until the time they were harvested. For uptake and efflux study, cells were seeded at 2 million cells in 2 ml of media.” for “methanol.”, “incubation. […]” for “incubation.”

[8] abbreviates: iv, plasma metabolite following i.v. 200 mg/kg Compound 003.
[9] abbreviates: iv, plasma metabolite following i.v. 200 mg/kg Compound 003, read-out: elimination half-life (t1/2).
The mark [10] stands for this setting: po, plasma metabolite following p.o. 200 mg/kg Compound 003.
[11] abbreviates: plasma metabolite following oral 200 mg/kg Compound 003, read-out: elimination half-life.

For the compound `O=S(=O)(F)Cc1ccccc1` [PMSF, phenylmethyl sulfonyl fluoride], in data set [1], the “potency order of esterase inhibitors” value is on record as “paraoxon>BNPP>PMSF>physostigmine”.

The term AUC denotes concentration integrated over time. What is called Cmax is the maximum level reached in the sampled fluid or tissue. What is called Tmax is the time at which the peak concentration occurs. Take `Cc1cn([C@H]2C[C@H](N=[N+]=[N-])[C@@H](CO)O2)c(=O)[nH]c1=O` [AZT, 3′-azido-3′-deoxythymidine, reference compound]: in data set [2], the “elimination t1/2 of AZT given as such” value is roughly 21.2 min. In data set [3] (setting [8]), the AUC was 152 µM·h, the Cmax turned out to be 64.3 µM and the Tmax is 50.4 min. Further, the half-life in data set [3] (setting [9]) came to 35 min. Also, in [3] (setting [10]), the AUC is 386 ± 124 µM·h, the Cmax was 46.9 µM and the Tmax was 144 min. Moreover, in data set [3] (setting [11]), the half-life worked out at 149 min. In the data set with BT20 breast cancer cells, the effect on microtubules result was “no effect on microtubules”.

Take `CCOP(=O)(OCC)Oc1ccc([N+](=O)[O-])cc1` [paraoxon]: the “potency order of esterase inhibitors” value in [1] is reported as “paraoxon>BNPP>PMSF>physostigmine”. Also, the “inhibition of metabolism of Compound 003 to ala-AZT-MP” value in [4] was “most potent inhibitor; also recorded: only paraoxon was effective in inhibiting the metabolism”.

In the case of `Cc1cn(C2CC(N=[N+]=[N-])C(COP(=O)(O)NC(C)C(=O)O)O2)c(=O)[nH]c1=O` (centres unmarked) [ala-AZT-MP, 3′-azido-3′-deoxythymidine-5′-alaninyl phosphate], the “efflux of ala-AZT-MP” value in the data set with BT20 cells was “only detectable from BT20 cells”. The AUC in [3] (setting [8]) came to 191 µM·h; in [3] (setting [10]), 20.7 ± 8.5 µM·h. In addition, the values for the Cmax in [3] (setting [8]) and in data set [3] (setting [10]) were 1880 µM and 9.8 µM, respectively. Further, the Tmax in [3] (setting [8]) is 1.2 min; in data set [3] (plasma, 200 mg/kg, mice, after Compound 003, route not distinguished), less than 5 min; in data set [3] (setting [10]), 4.5 min. Further, the half-life in data set [3] (setting [9]) was determined as 33.2 min; in data set [3] (setting [11]) it was 94.5 min. In addition, the “further intracellular conversion of ala-AZT-MP” value in data set [5] is listed as “only AZT was detectable”; in [6], “converted to AZT first then to AZTmp”; in [7], “preferentially converted to AZT-MP”. Also, in [5] (intact cells), the “level of ala-AZT-MP formation, CEM relative to Nalm6” value was found to be 2 fold. The “intracellular accumulation of ala-AZT-MP, BT20 relative to the other three cell lines” value in [7] (25-100 μM Compound 003, 3 hr) is reported as 6-12 fold.

Turning to `O=[N+]([O-])c1ccc(OP(=O)(O)Oc2ccc([N+](=O)[O-])cc2)cc1` [BNPP, Bis(p-nitrophenyl)phosphate], the “potency order of esterase inhibitors” value in data set [1] is “paraoxon>BNPP>PMSF>physostigmine”.
